Common to all, as to assay: DTP human tumour cell line panel, 48 h
Assay [1] concerns ACHN.
In assay [2] the test system is BT-549.
In assay [3] the test system is CAKI-1.
Assay [4] deals with DU-145.
Assay [5] concerns HCC 2998.
Assay [6] has as its system HOP-92.
The test system of assay [7] is Malme-3M.
For assay [8], the system named is NCI-H226.
Assay [9] relates to NCI-H522.
The test system of assay [10] is NCI/ADR-RES.
The test system of assay [11] is RXF 393.
Assay [12] deals with SK-MEL-2.
Assay [13] has as its system TK-10.
Assay [14] has as its system CCRF-CEM.
Assay [15] concerns DMS-273.
For assay [16], the system named is HL-60.
Assay [17] concerns KM-20L2.
The subject of assay [18] is SN12C.
Assay [19] has as its system SNB-75.
Assay [20] concerns HCT-116.

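Method: 48-hour compound exposure of cells in 96-well plates, five concentrations, linear interpolation of endpoints. GI50 = concentration required for 50% inhibition of growth.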 Active and inactive are the calls of the source. Rule as the data show it: active = GI50 up to about 1.1 µM and inactive = higher. Where a SMILES comes first, the peptide text is derived from it. [ ]: non-standard residue; d: D form. The star is where a group is joined. ξ: configuration not given here. ξF = NC(Cc1ccccc1)C(=O)O; Cbz = O=C(OCc1ccccc1)*; Aib = CC(C)(N)C(=O)O Some results are limits rather than exact numbers.

A word on the GI50: it is the concentration that inhibits growth by half. As to `O=[N+]([O-])c1ccc(Nc2nc3ccccc3s2)cc1`, the GI50 was 29.5 µM (inactive) in assay [1]; 27.2 µM (inactive) in [2]; > 100 µM (inactive) in [3]; 69.8 µM (inactive) in assay [4]; 25.2 µM (inactive) in assay [5]; 26.2 µM (inactive) in assay [6]. Further, the GI50 in [7] was 15.9 µM (inactive); in [8] it was 63 µM (inactive); in assay [9], 14.4 µM (inactive); in assay [10], 34.9 µM (inactive); in assay [11], 14.7 µM (inactive); in assay [12], 25.5 µM (inactive). Moreover, in [13], the GI50 is 33.7 µM (inactive).
For `COc1ccccc1C1C(C(=O)O)=C(CO)Oc2cc3c(cc21)OCO3` (stereo unspecified), the GI50 in assay [1], in [3], in assay [14], in assay [15], in [16] and in [6] was > 100 µM (inactive) in each case. In addition, the GI50 in assay [17], in [7], in assay [8], in assay [9], in assay [12] and in assay [18] was > 100 µM (inactive) each time. Besides, the GI50 in assay [19] and in assay [13] was > 100 µM (inactive) each time.
Regarding `CN(C)C(=S)SCc1ccccc1`, the GI50 is 87.9 µM (inactive) in assay [2]; > 100 µM (inactive) in [3]; > 100 µM (inactive) in [14]; > 100 µM (inactive) in assay [4]; 83.9 µM (inactive) in assay [20]; 99.1 µM (inactive) in assay [16]. Besides, the GI50 in [6] is 88.3 µM (inactive); in [7], 27.2 µM (inactive); in assay [8], 54.2 µM (inactive); in [9], 19.8 µM (inactive); in assay [10], > 100 µM (inactive); in assay [11], 3.85 µM (inactive). In addition, the GI50 was 83.4 µM (inactive) in [12], > 100 µM (inactive) in assay [18], 2.41 µM (inactive) in [19] and > 100 µM (inactive) in assay [13].
Regarding `C[N+](C)(N)c1nc(N)c(C#N)c(C#N)c1C#N`, the GI50 in assay [1], in assay [3], in assay [14], in assay [4], in assay [5] and in assay [20] was > 10 µM (inactive) in each case. Further, the GI50 in assay [16], in [7], in assay [8], in assay [9], in [10] and in assay [11] was > 10 µM (inactive) each time. For the same compound, the GI50 in [12], in assay [18], in assay [19] and in assay [13] was > 10 µM (inactive) in each case.
For the compound `CCCOC(=O)CCC(NC(=O)c1ccc(Nc2nc3ccccc3nc2-c2cccs2)cc1)C(=O)OCCC` (stereo unspecified), the GI50 is > 100 µM (inactive) in assay [1]; > 100 µM (inactive) in [3]; 3.62 µM (inactive) in [14]; > 100 µM (inactive) in assay [15]; 95.5 µM (inactive) in assay [5]; > 100 µM (inactive) in [20]. The GI50 in assay [6] is 29.2 µM (inactive); in [17], > 100 µM (inactive); in [7] it was 19.1 µM (inactive); in assay [8], > 100 µM (inactive); in assay [9], > 100 µM (inactive); in assay [11], 67.9 µM (inactive). For the same compound, the GI50 in [12] was 24.8 µM (inactive); in assay [18], > 100 µM (inactive); in [13] it was > 100 µM (inactive).
Turning to `Cc1cccc2c1Sc1ccccc1C2NC(=O)CN(C)C` (stereo unspecified), the GI50 in [1] was 43.4 µM (inactive); in assay [14], > 100 µM (inactive); in assay [15], > 100 µM (inactive); in assay [5] it was 47.6 µM (inactive); in assay [20], > 100 µM (inactive); in [16], 74.5 µM (inactive). Moreover, the GI50 in [17] was 18.7 µM (inactive); in assay [8] it was > 100 µM (inactive); in assay [11] it was 53.6 µM (inactive); in assay [18], 81.5 µM (inactive); in assay [19] it was 16 µM (inactive); in [13], > 100 µM (inactive).
As for `Nc1nc(=S)[nH]c2nc3c(c(-c4ccccc4)c12)CCCC3`, the GI50 is > 100 µM (inactive) in [1]; > 100 µM (inactive) in assay [2]; > 100 µM (inactive) in assay [3]; > 10 µM (inactive) in [14]; > 100 µM (inactive) in assay [4]; > 100 µM (inactive) in [20]. Further, the GI50 in assay [16] was > 100 µM (inactive); in assay [7], > 100 µM (inactive); in [10], > 100 µM (inactive); in [18] it was 67.8 µM (inactive); in assay [19], 34.8 µM (inactive); in [13] it was > 100 µM (inactive).
With `C=CC(Br)(CBr)CCC(Cl)C(C)C` (stereo unspecified), the GI50 in [1] was 2.53 µM (inactive); in assay [2], 1.6 µM (inactive); in assay [3], 2.62 µM (inactive); in [14], 0.364 µM (active); in assay [4], 2.72 µM (inactive); in assay [5] it was < 0.01 µM (active). Moreover, the GI50 is 3.12 µM (inactive) in assay [20]; 0.561 µM (active) in assay [16]; 2.04 µM (inactive) in assay [6]; 1.58 µM (inactive) in assay [7]; 7.28 µM (inactive) in assay [8]; 1.42 µM (inactive) in assay [9]. Also, the GI50 in assay [11] is 1.6 µM (inactive); in [12], 1.92 µM (inactive); in [18], 1.73 µM (inactive); in [19], 1.49 µM (inactive); in assay [13], 1.88 µM (inactive).
In the case of `O=Cc1c(Br)[nH]c2ccccc12`, the GI50 in assay [14] was 96.6 µM (inactive); in assay [15], > 100 µM (inactive); in [5] it was > 100 µM (inactive); in assay [20], 84.7 µM (inactive); in [16], 9.55 µM (inactive); in assay [6] it was 29.6 µM (inactive). The GI50 was > 100 µM (inactive) in assay [17]; > 100 µM (inactive) in [7]; > 58.3 µM (inactive) in assay [8]; 61.2 µM (inactive) in assay [9]; > 100 µM (inactive) in assay [10]; > 100 µM (inactive) in assay [11]. Also, the values for the GI50 in [12], in assay [18] and in assay [19] were 75.3 µM (inactive), > 100 µM (inactive) and 28.8 µM (inactive), respectively.
As for `COc1ccc(NC2=NCCO2)c2ccccc12`, the GI50 in assay [1], in [3], in assay [14], in assay [4], in assay [5] and in assay [20] was > 10 µM (inactive) in each case. The GI50 was > 10 µM (inactive) in assay [16]; > 10 µM (inactive) in assay [7]; 3.03 µM (inactive) in assay [8]; > 10 µM (inactive) in assay [9]; > 10 µM (inactive) in assay [10]; > 10 µM (inactive) in assay [11]. Further, the GI50 in assay [12], in assay [18], in assay [19] and in assay [13] was > 10 µM (inactive) each time.
As for `O=C(NCCCNC(=O)c1ccc2cc(O)c(O)cc2c1)c1ccc2cc(O)c(O)cc2c1`, the GI50 in assay [1] is 23.9 µM (inactive); in assay [2] it was 26.9 µM (inactive); in [3], > 100 µM (inactive); in [14], 27.1 µM (inactive); in assay [4] it was 26.7 µM (inactive); in assay [5], 18.6 µM (inactive). For the same compound, the GI50 was 37.4 µM (inactive) in [20]; 19.2 µM (inactive) in [16]; 14.2 µM (inactive) in assay [6]; 28.6 µM (inactive) in assay [7]; 18.4 µM (inactive) in [8]; 29.6 µM (inactive) in [9]. For the same compound, the GI50 in assay [10] is > 100 µM (inactive); in [11], 24.7 µM (inactive); in assay [12], 13.1 µM (inactive); in [19] it was 22.8 µM (inactive); in assay [13], 37.9 µM (inactive).
Consider `O=c1c2cc(I)ccc2nc(-c2cccs2)n1Nc1ccccc1`, for which the 50% growth inhibitory concentration (GI50) in assay [1] is 0.675 µM (active); in assay [2], 3.14 µM (inactive); in [3], 11 µM (inactive); in [5], 16 µM (inactive); in assay [20] it was 12.2 µM (inactive); in assay [16] it was 0.416 µM (active). Besides, the GI50 was 14.1 µM (inactive) in assay [8]; 0.849 µM (active) in assay [9]; 22.3 µM (inactive) in assay [10]; 39.3 µM (inactive) in assay [11]; 0.33 µM (active) in [12]; 46.8 µM (inactive) in [18].
As to `COC(=O)C(C)(C)NC(=O)C(Cc1ccccc1)NC(=O)C(C)(C)NC(=O)OCc1ccccc1` (stereo unspecified) (Cbz-[Aib]-[ξF]-[Aib]-OMe), the GI50 in assay [1], in [3], in assay [14], in [4], in assay [5] and in assay [20] was > 100 µM (inactive) each time. For the same compound, the GI50 in assay [16], in assay [7], in [9], in [10] and in assay [13] was > 100 µM (inactive) in each case.

Source of the values: ChEMBL document CHEMBL1201862, “PubChem BioAssay data set” (2004).
